In patent publication US20150119349A1, “NEW ANTIFUNGAL COMPOSITIONS” (DSM IP ASSETS B.V., priority 2012, published 2015):

Assays:
Type in all cases: in vivo
[1] = system: Penicillium italicum; experiment: Treatment of oranges inoculated with Penicillium italicum, natamycin/ferbam (Example 7); details: 20° C., 600 ppm ferbam
Procedure: (§1) Ten fresh, organic oranges were used per treatment. Each orange was soaked in a 180 ppm hypochlorite solution for 10 minutes, then rinsed thoroughly with fresh tap water and dried. The peel of each disinfected orange was wounded once using a cork borer according to the method described by de Lapeyre de Bellaire and Dubois (1987). Subsequently, each wound was inoculated with 10 μl of a Penicillium italicum suspension containing 1×10^5 of spores/ml. After incubation for 3 hours at 20° C., each wound and the orange peel area of 1 cm around the wound was treated with in total 150 μl of a freshly prepared aqueous antifungal composition comprising either 500 ppm natamycin (DSM Food Specialties, Delft, The Netherlands), 500 ppm propineb or both. Each antifungal composition also comprised 3.2% (w/w) beeswax, 0.8% (w/w) glycerol, 0.7% (w/w) polyoxyethylene sorbitan monostearate (Tween 60), 0.2% (w/w) polyoxyethylene sorbitan monooleate (Tween 80), 0.05% (w/w) methylhydroxyethyl-cellulose (MHEC), 0.03% (w/w) anti-foaming agent, 0.02% (w/w) xanthan gum, 0.02% (w/w) citric acid, 0.01% (w/w) lactic acid and 0.01% potassium sorbate. A composition without natamycin or propineb was used as control.
(§2) The treated oranges were incubated in a closed box in the dark at 20° C. and assessed on mould growth during a 17-day incubation period. The antifungal activity (in %) of the individual and combined active ingredients was determined by calculating the reduction in mould growth observed on the oranges treated with the antifungal composition in comparison to the mould growth on the oranges treated with the control composition according to the Colby method (Colby, 1967) described in Example 5.
The experiment was conducted as described in Example 6, except for the fact that each wounded and inoculated orange was treated with 150 μl of a freshly prepared aqueous antifungal composition comprising either 500 ppm natamycin (DSM Food Specialties, Delft, The Netherlands), 600 ppm ferbam or both. During the 17-day incubation period, the treated oranges were assessed on mould growth according to the method described in Example 6.

[2] = system: Botrytis cinerea; experiment: Treatment of sweet peppers inoculated with Botrytis cinerea (Example 8); details: 20° C., 200 ppm propineb
Procedure: Ten fresh, organic sweet peppers were used per treatment. Each sweet pepper was soaked in a 180 ppm hypochlorite solution for 10 minutes, then rinsed thoroughly with fresh tap water and dried. The peel of each disinfected sweet pepper was wounded once using a cork borer according to the method described by de Lapeyre de Bellaire and Dubois (1987). Subsequently, each wound was inoculated with 10 μl of a Botrytis cinerea suspension containing 1×10^5 of spores/ml. After incubation for 3 hours at 20° C., each wound and the skin area of 0.5 cm around the wound was treated with in total 75 μl of a freshly prepared aqueous antifungal composition comprising either 200 ppm natamycin (DSM Food Specialties, Delft, The Netherlands), 200 ppm propineb or both. Each antifungal composition also comprised 3.2% (w/w) beeswax, 0.8% (w/w) glycerol, 0.7% (w/w) polyoxyethylene sorbitan monostearate (Tween 60), 0.2% (w/w) polyoxyethylene sorbitan monooleate (Tween 80), 0.05% (w/w) methylhydroxyethyl-cellulose (MHEC), 0.03% (w/w) anti-foaming agent, 0.02% (w/w) xanthan gum, 0.02% (w/w) citric acid, 0.01% (w/w) lactic acid and 0.01% potassium sorbate. A composition without natamycin or propineb was used as control.
as §2, with “sweet peppers” for “oranges”, “27-day” for “17-day”

[3] = system: Penicillium italicum; experiment: Treatment of oranges inoculated with Penicillium italicum, natamycin/propineb (Example 6); details: 20° C., 500 ppm propineb
Procedure: as §1, §2

[4] = system: Botrytis cinerea; experiment: Treatment of strawberries inoculated with Botrytis cinerea (Example 5); details: 500 ppm natamycin, 600 ppm propineb; for Number of moulded strawberries/total number of 12 strawberries / Observed antifungal activity O: 20° C., strawberries
Procedure: Twelve fresh, organic strawberries were used per treatment. Each strawberry was wounded with a 0.5 mm long cut and each wound was inoculated with 10 μl of a Botrytis cinerea suspension containing 1×10^5 of spores/ml. After a 3-hour incubation period at 20° C., each strawberry was dipped individually for 1 minute in a freshly prepared aqueous antifungal composition comprising either 500 ppm natamycin (DSM Food Specialties, Delft, The Netherlands), 600 ppm propineb or both. Each antifungal composition also comprised 3.2% (w/w) beeswax, 0.8% (w/w) glycerol, 0.7% (w/w) polyoxyethylene sorbitan monostearate (Tween 60), 0.1% (w/w) polyoxyethylene sorbitan monooleate (Tween 80), 0.05% (w/w) methylhydroxyethyl-cellulose (MH EC), 0.03% (w/w) anti-foaming agent, 0.02% (w/w) xanthan gum, 0.02% (w/w) citric acid, 0.01% (w/w) lactic acid and 0.01% potassium sorbate. A composition without natamycin or propineb was used as control. […] The treated strawberries were incubated in a closed box in the dark at 20° C. for 9 days.
During incubation, mould growth on the strawberries was assessed in a twofold manner: (i) the number of moulded strawberries per total of 12 strawberries was counted; and (ii) the antifungal activity (in %) of the individual and combined active ingredients was determined by calculating the reduction in mould growth observed on the strawberries treated with the antifungal composition in comparison to the mould growth on the strawberries treated with the control composition. The expected antifungal activity (E in %) of the combined antifungal composition comprising both active ingredients was calculated according to the Colby equation (Colby, 1967): […]
wherein X and Y are the observed antifungal activities (in %) of the individual active ingredients X and Y, respectively.

[5] = incubation day 7, 500 ppm natamycin
[6] = incubation day 8, 500 ppm natamycin
[7] = incubation day 9, 500 ppm natamycin
[8] = incubation day 10, 500 ppm natamycin
[9] = incubation day 11, 500 ppm natamycin
[10] = incubation day 12, 500 ppm natamycin
[11] = incubation day 13, 500 ppm natamycin
[12] = incubation day 14, 500 ppm natamycin
[13] = incubation day 15, 500 ppm natamycin
[14] = incubation day 17, 500 ppm natamycin
[15] = incubation day 11, 200 ppm natamycin
[16] = incubation day 12, 200 ppm natamycin
[17] = incubation day 13, 200 ppm natamycin
[18] = incubation day 15, 200 ppm natamycin
[19] = incubation day 18, 200 ppm natamycin
[20] = incubation day 24, 200 ppm natamycin
[21] = incubation days 20-22, 200 ppm natamycin
[22] = incubation days 25-27, 200 ppm natamycin

## CN(C)C(=S)[S-].CN(C)C(=S)[S-].CN(C)C(=S)[S-].[Fe+3] [Ferbam, ferbam]
[1]; [5]
  Observed antifungal activity O: 20%
[1]; [6]
  Observed antifungal activity O: 24%
[1]; [7]
  Observed antifungal activity O: 20%
[1]; [8]
  Observed antifungal activity O: 7%
[1]; [9]
  Observed antifungal activity O: 13%
[1]; [10]
  Observed antifungal activity O: 6%
[1]; [11]
  Observed antifungal activity O: 6%
[1]; [12]
  Observed antifungal activity O: 6%
[1]; [13]
  Observed antifungal activity O: 6%
[1]; [14]
  Observed antifungal activity O: 5%

## C[C@@H]1C/C=C/C=C/C=C/C=C/[C@H](O[C@@H]2O[C@H](C)[C@@H](O)[C@H](N)[C@@H]2O)C[C@@H]2O[C@](O)(C[C@@H](O)C[C@H]3O[C@@H]3/C=C/C(=O)O1)C[C@H](O)[C@H]2C(=O)O [Natamycin, natamycin]
[2]; [15]
  Observed antifungal activity O: 84%
[2]; [16]
  Observed antifungal activity O: 80%
[2]; [17]
  Observed antifungal activity O: 79%
[2]; [18]
  Observed antifungal activity O: 78%
[2]; [19]
  Observed antifungal activity O: 75%
[2]; [20]
  Observed antifungal activity O: 59%
[2]; [21]
  Observed antifungal activity O: 71%
[2]; [22]
  Observed antifungal activity O: 57%
[1]; [5]
  Observed antifungal activity O: 89%
[1]; [6]
  Observed antifungal activity O: 86%
[1]; [7]
  Observed antifungal activity O: 64%
[1]; [8]
  Observed antifungal activity O: 54%
[1]; [9]
  Observed antifungal activity O: 41%
[1]; [10]
  Observed antifungal activity O: 36%
[1]; [11]
  Observed antifungal activity O: 38%
[1]; [12]
  Observed antifungal activity O: 32%
[1]; [13]
  Observed antifungal activity O: 24%
[1]; [14]
  Observed antifungal activity O: 21%
[3]; [8]
  Observed antifungal activity O: 54%
[3]; [9]
  Observed antifungal activity O: 41%
[3]; [10]
  Observed antifungal activity O: 36%
[3]; [11]
  Observed antifungal activity O: 38%
[3]; [12]
  Observed antifungal activity O: 32%
[3]; [13]
  Observed antifungal activity O: 24%
[3]; [14]
  Observed antifungal activity O: 21%
[4]; Day 5
  Number of moulded strawberries/total number of 12 strawberries: 11/12
[4]; Day 6-9
  Number of moulded strawberries/total number of 12 strawberries: 12/12
[4]; incubation day 4
  Observed antifungal activity O: 33%
[4]; incubation day 5
  Observed antifungal activity O: 16%
[4]; incubation day 6
  Observed antifungal activity O: 5.3%
[4]; incubation day 7
  Observed antifungal activity O: 11%
[4]; incubation day 8
  Observed antifungal activity O: 14%
[4]; incubation day 9
  Observed antifungal activity O: 4.8%

## propineb
[2]; [15]
  Observed antifungal activity O: 0%
[2]; [16]
  Observed antifungal activity O: 0%
[2]; [17]
  Observed antifungal activity O: 0%
[2]; [18]
  Observed antifungal activity O: 0%
[2]; [19]
  Observed antifungal activity O: 0%
[2]; [20]
  Observed antifungal activity O: 0%
[2]; [21]
  Observed antifungal activity O: 0%
[2]; [22]
  Observed antifungal activity O: 0%
[3]; [8]
  Observed antifungal activity O: 0%
[3]; [9]
  Observed antifungal activity O: 0%
[3]; [10]
  Observed antifungal activity O: 0%
[3]; [11]
  Observed antifungal activity O: 0%
[3]; [12]
  Observed antifungal activity O: 0%
[3]; [13]
  Observed antifungal activity O: 0%
[3]; [14]
  Observed antifungal activity O: 0%
[4]; after 5 through 9 days of incubation
  Number of the 12 strawberries that showed mould growth: 12
[4]; Day 5
  Number of moulded strawberries/total number of 12 strawberries: 12/12
[4]; Day 6-9
  Number of moulded strawberries/total number of 12 strawberries: 12/12
[4]; incubation day 4
  Observed antifungal activity O: 0%
[4]; incubation day 5
  Observed antifungal activity O: 0%
[4]; incubation day 6
  Observed antifungal activity O: 0%
[4]; incubation day 7
  Observed antifungal activity O: 0%
[4]; incubation day 8
  Observed antifungal activity O: 0%
[4]; incubation day 9
  Observed antifungal activity O: 0%
